In PMC10771590, “Pathway crosstalk between the central metabolic and heme biosynthetic pathways in Phanerochaete chrysosporium” (Applied Microbiology and Biotechnology, 2024):
Where two headings read alike, the source gives them in different places.

Columns and labels:
P. chrysosporium = assay: Growth of P. chrysosporium with exogenously added hemin; assay type: cell-based, Phanerochaete chrysosporium
Description: P. chrysosporium (ATCC 34541) was grown from conidial inocula at 37 °C in a stationary culture (20-ml medium in a 200-ml Erlenmeyer flask). The medium (pH 4.5) used in this study was a ligninolytic medium as previously described (Shimizu et al. [2005]; Kirk et al. [1978]), with 1% glucose as carbon source and 1.2 mM ammonium tartrate as nitrogen source.
Taking these observations together, a metabolic “pathway crosstalk” is proposed and summarized in Scheme 1. In P. chrysosporium, heme plays an important role as a prosthetic molecule for many cellular processes, in particular, ligninolytic enzymes. Upon addition of exogenous aromatic compounds, fungal cellular metabolism was dramatically shifted from basic energy metabolism to “defensive” or “productive” metabolism. Glucose uptake and consumption and NADPH and succinyl-CoA production were activated in response to exogenous aromatic compounds. Furthermore, the heme synthetic pathway was activated (Shimizu et al. [2005]). Immediate activation of the heme synthesis against aromatics is crucial for the fungus to produce aromatics-degrading enzymes. On the other hand, free heme is highly toxic to the cell. Thus, metabolic overflow of heme biosynthesis causes highly stressful conditions in the mitochondria. The TCA cycle, including CS, is located in the mitochondrial matrix space (Mcalister-Henn and Small [1997]). […]

pig CS = biological target: T1, pig CS (Sus scrofa, UniProt P00889); assay: Inhibitory effect of hemin on pig CS (SsCS) reaction; assay type: biochemical; conditions: 0–5.7 µM hemin, incubated 0 or 60 min at 4 °C (Supplemental Fig. S2)
T1 sequence (P00889 28-464): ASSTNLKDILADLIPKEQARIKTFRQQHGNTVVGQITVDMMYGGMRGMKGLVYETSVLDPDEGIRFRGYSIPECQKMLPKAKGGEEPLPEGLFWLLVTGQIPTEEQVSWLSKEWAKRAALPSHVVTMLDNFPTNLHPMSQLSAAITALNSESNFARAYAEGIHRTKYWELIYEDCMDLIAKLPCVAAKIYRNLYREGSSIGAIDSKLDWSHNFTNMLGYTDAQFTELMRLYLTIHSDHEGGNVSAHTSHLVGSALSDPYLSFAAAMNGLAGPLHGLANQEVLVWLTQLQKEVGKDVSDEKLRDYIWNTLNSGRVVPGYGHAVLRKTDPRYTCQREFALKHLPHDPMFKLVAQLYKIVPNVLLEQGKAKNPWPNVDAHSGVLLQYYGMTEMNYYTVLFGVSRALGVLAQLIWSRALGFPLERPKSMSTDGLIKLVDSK
From the text: One heme-responsive-motif (HRM) was found in PcCS, which could be a possible heme-binding site (Lathrop and Timko [1993]; Zhang and Guarente [1995]; Ishikawa et al. [2005]; Yamanaka et al. [2003]). From the alignment analysis, only certain fungi contain HRM (CP motif) in their CSs (Supplemental Fig. S1). No mammalian CS contains HRM (Supplemental Fig. S1). […] Furthermore, the His residue corresponding to His^347 in PcCS was conserved in either mammalian or fungal CSs. Combining all the data, the heme-binding site is concluded to be His^347 of PcCS.
Concentration of hemin (nM)
Figure S2 Inhibitory effect of hemin on SsCS reaction. Reaction mixtures containing
1.5 nM SsCS, 40 mM Tris/HCl (pH 8.5) and 0, 0.5, 1.2 and 5.7 µM hemin were incubated […]

[1] = biological target: T2, rPcCS (mitochondrial citrate synthase) (Phanerodontia chrysosporium, UniProt Q0EAA7); assay: CS assay (DTNB method) and steady-state kinetic analysis; assay type: biochemical, Phanerochaete chrysosporium; conditions: for Ki: 0–2.5 μM hemin
T2 sequence (Q0EAA7 1-446): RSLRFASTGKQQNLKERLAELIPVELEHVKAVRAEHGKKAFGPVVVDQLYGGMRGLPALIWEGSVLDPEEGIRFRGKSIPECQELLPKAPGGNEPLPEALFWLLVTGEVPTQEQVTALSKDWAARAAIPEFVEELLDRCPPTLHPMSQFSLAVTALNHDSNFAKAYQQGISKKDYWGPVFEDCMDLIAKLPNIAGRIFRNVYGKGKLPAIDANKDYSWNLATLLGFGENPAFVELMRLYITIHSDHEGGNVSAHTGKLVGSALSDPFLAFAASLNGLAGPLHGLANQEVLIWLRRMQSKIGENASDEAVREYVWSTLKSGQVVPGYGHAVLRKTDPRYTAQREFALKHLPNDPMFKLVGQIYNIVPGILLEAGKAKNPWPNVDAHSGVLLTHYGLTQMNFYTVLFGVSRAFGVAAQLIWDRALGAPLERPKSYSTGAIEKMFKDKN
Description: CS was assayed by the 5, 5′-dithiobis-2-nitrobenzoic acid (DTNB) method, as described previously (Srere et al. [1963]). […] CS catalyzes the reaction of OAA with AcCoA, generating citrate and CoA. Thus, reactions were monitored by the amount of released CoA, which was followed at 412 nm (ε 13 600 M^–1cm^–1) by the formation of 2-nitro-5-mercaptobenzoic acid, via the reaction of CoA with DTNB. Reactions were monitored for 1 min, and initial velocity was determined. […] Inhibition studies were carried out in the presence of 0–2.5 μM hemin as described above. Kinetic parameters were determined from Lineweaver–Burk plots, and Ki values were determined from the secondary plot of the slopes of the Lineweaver–Burk plots. Hemin and OAA solutions were prepared immediately prior to use.
Fig. 5 Inhibitory effect of hemin on PcCS reaction. […] Reaction mixtures contained 1.5 nM rPcCS, 40 mM Tris-HCl (pH 8.5), and 120 μM DTNB. Fixed substrate was added at 12 μM and variable substrate at 3–12 μM. […] Insets: secondary plots of each slope of Lineweaver–Burk plots against the concentration of hemin for determining inhibition constants.

`C=CC1=C(C)c2cc3[nH]c(cc4nc(cc5[nH]c(cc1n2)c(C)c5CCC(=O)O)C(CCC(=O)O)=C4C)c(C)c3C=C.[Fe+3]` [hemin] was tested, and the “growth of P. chrysosporium” value (P. chrysosporium; 1.0 μM hemin added to culture medium in the dark (data not shown)) was “completely shut down”, the “growth of P. chrysosporium” value (P. chrysosporium; exogenous addition of hemin at sub-μM concentrations) was “completely shut down” and the “effect on pig CS activity” value (pig CS) was “inhibited”. For the same compound, the “inhibitory effect relative to reported inhibitors of other eukaryotic CSs” value ([1]; hemin on PcCS versus inhibition constants larger than 0.1 mM) was 10 times, the “mode of inhibition for AcCoA” value ([1]; rPcCS, double-reciprocal plots) was “competitive inhibitor” and the “mode of inhibition for OAA” value ([1]; rPcCS, double-reciprocal plots) was “non-competitive inhibitor”. It also gave a Ki ([1]; read-out: Ki AcCoA, rPcCS, pH 8.5, AcCoA as variable substrate) of 5.8 µM and a Ki ([1]; read-out: Ki OAA, rPcCS, pH 8.5, OAA as variable substrate) of 8.7 µM.
